In ChEMBL document CHEMBL5036382 (ACS Med Chem Lett, 2022):
Calls of active or inactive are those of the source. No cut-off for these calls is given here.

Legend:
[1] = biological target: T1, DNA-directed RNA polymerase I subunit RPA1 (Homo sapiens, UniProt O95602); assay: Inhibition of RNA polymerase 1 in human A-375 assessed as RPA194 degradation measured after 3 hrs by Hoechst 33342 staining based assay
[2] = biological target: Voltage-gated inwardly rectifying potassium channel KCNH2 (Homo sapiens, UniProt Q12809); assay: Inhibition on hERG expressed in HEK293 cells by Qpatch method
Cytochrome P450 1A2 = biological target: T2, Cytochrome P450 1A2 (Homo sapiens, UniProt P05177); assay: Inhibition of recombinant human hepatic CYP1A2 expressed in baculovirus insect cell expression system in presence of CEC substrate measured by fluorescence plate reader assay
T2 sequence (P05177 whole entry): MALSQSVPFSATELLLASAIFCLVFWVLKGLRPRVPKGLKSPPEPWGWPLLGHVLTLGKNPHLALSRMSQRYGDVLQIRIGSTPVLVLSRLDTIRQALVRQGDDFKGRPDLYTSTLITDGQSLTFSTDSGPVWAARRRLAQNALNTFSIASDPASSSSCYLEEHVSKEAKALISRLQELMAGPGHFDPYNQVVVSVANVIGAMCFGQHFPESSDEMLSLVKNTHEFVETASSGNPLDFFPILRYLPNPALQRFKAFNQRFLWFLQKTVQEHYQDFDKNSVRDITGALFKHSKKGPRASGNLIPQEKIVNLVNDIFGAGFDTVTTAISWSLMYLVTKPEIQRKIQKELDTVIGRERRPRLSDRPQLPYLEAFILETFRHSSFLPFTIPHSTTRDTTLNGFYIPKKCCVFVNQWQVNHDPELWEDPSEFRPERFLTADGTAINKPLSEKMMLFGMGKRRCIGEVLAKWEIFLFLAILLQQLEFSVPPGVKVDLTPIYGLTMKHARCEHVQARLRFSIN

[3] = biological target: T1, DNA-directed RNA polymerase I subunit RPA1; assay: Inhibition of RPA1 in human A-375 cells assessed as downregulation of RPA1 gene at 1 uM incubated for 6 hrs measured by qPCR analysis; type: cell-based
A-375 [4] = assay: Inhibition of RPA2 in human A-375 cells assessed as downregulation of RPA2 gene at 1 uM incubated for 6 hrs measured by qPCR analysis; type: cell-based
[5] = Clearance in CD1 mouse at 1 mg/kg, iv; type: ADME, organism-based; conditions: in vivo
[6] = Cmax in CD1 mouse at 30 mg/kg, po; type: ADME, organism-based; set-up: route oral, dose 30 mg/kg; conditions: in vivo
[7] = Volume of distribution at steady state in CD1 mouse at 1 mg/kg, iv; type: ADME, organism-based; conditions: in vivo, read-out: Vdss
[8] = Half life in CD1 mouse at 30 mg/kg, ip; conditions: in vivo
[9] = AUC (0 to infinity) in CD1 mouse at 30 mg/kg, po; type: ADME, organism-based; set-up: route oral, time infinity, dose 30 mg/kg; conditions: in vivo
[10] = AUC (0 to infinity) in CD1 mouse at 30 mg/kg, ip; conditions: in vivo
[11] = AUC (0 to infinity) in CD1 mouse at 1 mg/kg, iv; type: ADME, organism-based; set-up: time infinity, route intravenous, dose 1 mg/kg; conditions: in vivo
A-375 [12] = assay: Cytotoxicity against human A-375 cells assessed as reduction in cell viability incubated for 72 hrs by cell titer glo luminescent assay; conditions: A-375, 72 h
A-375 [13] = assay: Inhibition of RPA3 in human A-375 cells assessed as downregulation of RPA3 gene at 1 uM incubated for 6 hrs measured by qPCR analysis; type: cell-based
[14] = Half life in CD1 mouse at 1 mg/kg, iv; type: ADME, organism-based; conditions: in vivo
[15] = Metabolic stability in mouse liver microsomes at 1 uM assessed as intrinsic clearance measured after 45 mins by LC-MS/MS analysis; type: ADME, Microsome; conditions: read-out: CLH
[16] = Cmax in CD1 mouse at 30 mg/kg, ip; conditions: in vivo
[17] = Oral bioavailability in CD1 mouse at 30 mg/kg; type: ADME, organism-based; conditions: in vivo

Voltage-gated inwardly rectifying potassium channel KCNH2, sequence (Q12809 whole entry): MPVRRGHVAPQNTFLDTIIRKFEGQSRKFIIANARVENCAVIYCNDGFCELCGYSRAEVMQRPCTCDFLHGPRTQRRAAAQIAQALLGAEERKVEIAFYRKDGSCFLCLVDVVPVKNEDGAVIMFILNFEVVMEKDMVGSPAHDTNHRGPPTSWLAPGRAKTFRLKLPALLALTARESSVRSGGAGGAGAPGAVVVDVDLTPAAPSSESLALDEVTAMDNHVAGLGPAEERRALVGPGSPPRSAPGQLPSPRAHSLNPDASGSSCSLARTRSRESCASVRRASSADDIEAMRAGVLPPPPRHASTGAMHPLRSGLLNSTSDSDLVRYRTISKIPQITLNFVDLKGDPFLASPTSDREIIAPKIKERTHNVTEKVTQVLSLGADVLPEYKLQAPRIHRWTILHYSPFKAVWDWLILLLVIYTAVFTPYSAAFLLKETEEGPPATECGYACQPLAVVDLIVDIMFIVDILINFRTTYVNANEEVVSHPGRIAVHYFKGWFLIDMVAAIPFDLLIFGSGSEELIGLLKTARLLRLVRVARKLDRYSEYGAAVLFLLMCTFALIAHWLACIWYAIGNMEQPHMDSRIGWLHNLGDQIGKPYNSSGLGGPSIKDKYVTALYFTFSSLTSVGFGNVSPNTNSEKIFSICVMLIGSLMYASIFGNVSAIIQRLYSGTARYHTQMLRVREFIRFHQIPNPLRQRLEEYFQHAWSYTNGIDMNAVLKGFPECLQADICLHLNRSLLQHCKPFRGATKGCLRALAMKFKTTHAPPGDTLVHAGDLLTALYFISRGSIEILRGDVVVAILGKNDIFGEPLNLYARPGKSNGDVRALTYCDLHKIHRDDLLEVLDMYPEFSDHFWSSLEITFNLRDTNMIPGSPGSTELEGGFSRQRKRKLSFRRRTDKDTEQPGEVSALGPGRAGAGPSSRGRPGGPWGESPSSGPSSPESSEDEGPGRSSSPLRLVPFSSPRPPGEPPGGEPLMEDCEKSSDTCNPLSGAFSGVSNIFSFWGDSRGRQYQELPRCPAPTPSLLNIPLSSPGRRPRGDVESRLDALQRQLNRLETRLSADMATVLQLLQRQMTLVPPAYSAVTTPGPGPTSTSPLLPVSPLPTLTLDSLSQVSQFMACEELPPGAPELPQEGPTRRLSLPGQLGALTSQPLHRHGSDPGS
T1 sequence (O95602 whole entry): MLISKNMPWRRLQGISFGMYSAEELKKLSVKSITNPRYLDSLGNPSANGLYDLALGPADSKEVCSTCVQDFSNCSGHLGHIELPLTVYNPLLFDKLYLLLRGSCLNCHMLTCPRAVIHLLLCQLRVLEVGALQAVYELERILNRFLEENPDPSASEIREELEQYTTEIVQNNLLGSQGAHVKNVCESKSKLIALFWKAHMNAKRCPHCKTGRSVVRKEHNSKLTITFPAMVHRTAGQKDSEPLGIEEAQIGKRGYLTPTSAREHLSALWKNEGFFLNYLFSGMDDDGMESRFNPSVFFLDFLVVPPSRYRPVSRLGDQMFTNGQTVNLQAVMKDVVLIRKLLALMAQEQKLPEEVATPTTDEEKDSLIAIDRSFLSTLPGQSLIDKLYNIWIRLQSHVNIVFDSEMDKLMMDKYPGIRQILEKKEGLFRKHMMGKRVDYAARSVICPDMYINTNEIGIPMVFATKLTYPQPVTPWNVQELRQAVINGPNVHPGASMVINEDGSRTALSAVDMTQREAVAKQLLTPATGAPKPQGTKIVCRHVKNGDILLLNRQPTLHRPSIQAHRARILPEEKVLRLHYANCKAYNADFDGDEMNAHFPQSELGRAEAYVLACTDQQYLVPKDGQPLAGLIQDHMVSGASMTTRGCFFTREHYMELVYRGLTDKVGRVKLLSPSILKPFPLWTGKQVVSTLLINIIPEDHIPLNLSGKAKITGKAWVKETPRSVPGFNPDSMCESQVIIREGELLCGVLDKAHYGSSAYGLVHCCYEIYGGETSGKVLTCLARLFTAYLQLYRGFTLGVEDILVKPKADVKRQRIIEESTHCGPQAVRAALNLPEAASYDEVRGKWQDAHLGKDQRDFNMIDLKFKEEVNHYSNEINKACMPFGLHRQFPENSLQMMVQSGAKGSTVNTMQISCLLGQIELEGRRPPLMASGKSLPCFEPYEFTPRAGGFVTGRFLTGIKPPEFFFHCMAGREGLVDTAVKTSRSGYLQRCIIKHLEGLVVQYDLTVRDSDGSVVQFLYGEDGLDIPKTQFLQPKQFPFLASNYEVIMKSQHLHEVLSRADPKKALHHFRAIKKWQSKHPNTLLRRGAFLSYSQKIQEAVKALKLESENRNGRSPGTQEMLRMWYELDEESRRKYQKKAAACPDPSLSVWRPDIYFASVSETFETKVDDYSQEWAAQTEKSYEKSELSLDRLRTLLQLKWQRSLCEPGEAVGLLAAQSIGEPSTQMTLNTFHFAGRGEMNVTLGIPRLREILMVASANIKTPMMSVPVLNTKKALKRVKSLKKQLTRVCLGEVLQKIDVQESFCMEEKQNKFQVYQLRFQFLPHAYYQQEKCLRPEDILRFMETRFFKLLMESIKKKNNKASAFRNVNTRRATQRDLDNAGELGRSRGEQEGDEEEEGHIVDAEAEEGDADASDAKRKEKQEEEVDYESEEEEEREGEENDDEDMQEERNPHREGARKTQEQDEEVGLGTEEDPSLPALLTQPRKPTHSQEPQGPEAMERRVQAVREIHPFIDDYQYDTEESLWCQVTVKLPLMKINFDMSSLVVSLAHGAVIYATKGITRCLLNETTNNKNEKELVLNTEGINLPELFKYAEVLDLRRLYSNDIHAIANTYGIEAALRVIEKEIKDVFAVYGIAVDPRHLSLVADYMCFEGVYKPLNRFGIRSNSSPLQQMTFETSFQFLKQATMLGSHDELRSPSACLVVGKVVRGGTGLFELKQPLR

SMILES	IC50 [1]	other results
NCCNC(=O)c1cccn2c(=O)c3ccc4ccccc4c3nc12	> 10 µM	IC50 [2]: > 10 µM; IC50 (Cytochrome P450 1A2): > 10 µM
O=C(NCCO)c1cccn2c(=O)c3ccc4ccccc4c3nc12	9.5 µM	IC50 [2]: > 10 µM; IC50 (Cytochrome P450 1A2): 0.1 µM
O=C(NCCN1CCC(O)(O)CC1)c1cccn2c(=O)c3cc4ccccc4cc3nc12	0.6 µM	–
O=C(NCCN1CCCC1)c1cccn2c(=O)c3c(ccc4cnncc43)nc12	4.2 µM	–
O=C(NCCN1CCCC1)c1cccn2c1nc1cc3ccccc3cc12	1.7 µM	–
O=C(NCC1CCCN1)c1cccn2c(=O)c3cc4ccccc4cc3nc12 (stereo not drawn)	0.78 µM	–
O=C(NCCN1CC[C@@H](F)C1)c1cccn2c(=O)c3ccc4ccccc4c3nc12	1.9 µM	IC50 [2]: 8.26 µM; IC50 (Cytochrome P450 1A2): 2.1 µM
N#CC1CCN(CCNC(=O)c2cccn3c(=O)c4cc5ccccc5cc4nc23)CC1	0.74 µM	–
CN(C)CCNC(=O)c1cccn2c(=O)c3ccc4ccccc4c3nc12	0.16 µM	–
O=C(NCCN1CCCC1)c1c(O)ccn2c(=O)c3cc4ccccc4cc3nc12	5.5 µM	–
O=C(NC1CNC1)c1cccn2c(=O)c3ccc4ccccc4c3nc12	> 10 µM	IC50 [2]: 3.97 µM; IC50 (Cytochrome P450 1A2): 0.2 µM
O=C(NCCN1CCSCC1)c1cccn2c(=O)c3cc4ccccc4cc3nc12	10 µM	–
O=C(NCCN1CCCC1)c1cccn2c(=O)c3cc4c(cc3nc12)OCCO4	1.04 µM	–
O=C(NCCN1CCCC1)c1cccn2c(=O)c3cc4c(cc3nc12)OC(F)(F)O4	0.42 µM	–
O=C(NCCN1CCCC1)c1cccn2c(=O)c3ccc4ccccc4c3nc12	0.21 µM	inhibition [3]: Active; inhibition (A-375 [4]): inactive; clearance [5]: 508 mL/min/kg; Cmax [6]: 13.9 ng/mL; Vd [7]: 33.2 L/kg; half-life [8]: 7.52 h; AUC(0-inf) [9]: 122 ng·h/mL; AUC(0-inf) [10]: 518 ng·h/mL; AUC(0-inf) [11]: 30.8 ng·h/mL; IC50 (A-375 [12]): 0.038 µM; inhibition (A-375 [13]): inactive; half-life [14]: 1.22 h; microsomal CLint at 1 µM [15]: 132 µL/min/mg; Cmax [16]: 83 ng/mL; bioavailability [17]: 13%
O=C(NCCN1CCCCC1)c1cccn2c(=O)c3ccc4ccccc4c3nc12	0.64 µM	IC50 [2]: 3.72 µM; IC50 (Cytochrome P450 1A2): > 10 µM
CN1CCCC1CNC(=O)c1cccn2c(=O)c3cc4ccccc4cc3nc12 (stereo not drawn)	3.94 µM	–
O=C(NCCN1CCCC1)c1cccn2c(=O)c3cc4c(cc3nc12)CCCC4	1.39 µM	–
O=C(NCCCN1CCCC1)c1cccn2c(=O)c3ccc4ccccc4c3nc12	> 10 µM	–
O=C(NCCN1CCCC1)c1cccn2c1nc1cc3ccccc3nc12	6 µM	–
O=C(NCCN1CC[C@H](F)C1)c1cccn2c(=O)c3ccc4ccccc4c3nc12	> 10 µM	IC50 [2]: > 10 µM; IC50 (Cytochrome P450 1A2): 4.5 µM
O=C(NCCN1CCCC(F)(F)C1)c1cccn2c(=O)c3cc4ccccc4cc3nc12	> 10 µM	–

SMILES	IC50 [1]	other results
CN1CCN(CCNC(=O)c2cccn3c(=O)c4ccc5ccccc5c4nc23)CC1	> 10 µM	IC50 [2]: > 10 µM; IC50 (Cytochrome P450 1A2): > 10 µM
CN(C)CCCNC(=O)c1cccn2c(=O)c3ccc4ccccc4c3nc12	> 10 µM	–
CN(C)CCNC(=O)c1cccn2c(=O)c3cc4ccccc4cc3nc12	–	inhibition (A-375 [4]): inactive; inhibition (A-375 [13]): inactive
O=C(NCCN1CCC(F)CC1)c1cccn2c(=O)c3cc4ccccc4cc3nc12	0.78 µM	–
O=C(NCCN1CCCC1)c1cccn2c(=O)c3c(ccc4ccccc43)nc12	> 10 µM	–
CNCCNC(=O)c1cccn2c(=O)c3ccc4ccccc4c3nc12	0.47 µM	IC50 [2]: > 10 µM; IC50 (Cytochrome P450 1A2): 0.3 µM
O=C(NCCN1CCS(=O)(=O)CC1)c1cccn2c(=O)c3cc4ccccc4cc3nc12	> 10 µM	–
CCN(CC)CCNC(=O)c1cccn2c(=O)c3ccc4ccccc4c3nc12	0.6 µM	–
O=C(NCC1CCCCN1)c1cccn2c(=O)c3cc4ccccc4cc3nc12 (stereo not drawn)	0.59 µM	–
CC(C)N1CCCCC1CNC(=O)c1cccn2c(=O)c3cc4ccccc4cc3nc12 (stereo not drawn)	10 µM	–
O=C(NCCN1CCCC(F)C1)c1cccn2c(=O)c3cc4ccccc4cc3nc12 (stereo not drawn)	> 10 µM	–
Cc1cc2nc3c(C(=O)NCCN4CCCC4)cccn3c(=O)c2cc1C	1.16 µM	–
CN1CCOCC1CNC(=O)c1cccn2c(=O)c3cc4ccccc4cc3nc12 (stereo not drawn)	1 µM	–
O=C(NCCN1CCC(F)(F)C1)c1cccn2c(=O)c3cc4ccccc4cc3nc12	> 10 µM	–
CCN1CCCCC1CNC(=O)c1cccn2c(=O)c3cc4ccccc4cc3nc12 (stereo not drawn)	0.99 µM	–
COc1cc2nc3c(C(=O)NCCN4CCCC4)cccn3c(=O)c2cc1OC	6.86 µM	–
O=C(NCCN1CCC(F)(F)CC1)c1cccn2c(=O)c3cc4ccccc4cc3nc12	> 10 µM	–
O=C(NCCN1CCC(F)C1)c1cccn2c(=O)c3cc4ccccc4cc3nc12 (stereo not drawn)	5.75 µM	–
O=C(NCC1CCCC(CO)N1)c1cccn2c(=O)c3cc4ccccc4cc3nc12 (stereo not drawn)	0.65 µM	–
O=C(NCCN1CCCC1)c1cccn2c(=O)c3cc4c(cc3nc12)OCO4	0.54 µM	–
CN1CCC(NC(=O)c2cccn3c(=O)c4ccc5ccccc5c4nc23)CC1	> 10 µM	IC50 [2]: 7.39 µM; IC50 (Cytochrome P450 1A2): > 10 µM
CC(NC(=O)c1cccn2c(=O)c3cc4ccccc4cc3nc12)C1CCCCN1 (stereo not drawn)	0.92 µM	–
